Laboratory results: patent US5516777A, “Condensed pyrazole derivatives, and androgen inhibitor” (Otsuka Pharmaceutical Co., Ltd., priority 1992, dated 1996)

Key:
[1] = Oral absorption (blood level after oral administration); format: in vivo; details: Wistar male rat, 30 mg/ml/kg, serum
Protocol: After administration, the rat is fixed on a plate with nails and strings. […] The serum was obtained by centrifuging with a blood serum separating tube ([…] tube). To 100 μl of the serum thus obtained was added 300 μl of methanol, and the mixture was centrifuged. Next, 50 μl of the supernatant was applied to a high-performance liquid chromatography, and the blood level of the compound was measured. Conditions of the high-performance liquid chromatography are as follows: Column: […] 300, 4.6 mm diameter and 150 mm length Eluent: 48% CH3 CN-0.01% TFA Flow rate: 1 ml/minute Detection: UV 290 nm Sensitivity: 0.01 AUFS Colume temperature: 50° C. As Comparative Example 10, the compound expressed in the following chemical formula disclosed in U.S. Pat.

[2] = In vitro drug metabolism in rat liver extract; format: in vitro ADME, male Wistar rats; details: pH 7.4, 37° C.; for remaining at 5 min / remaining at 0.25 h / remaining at 0.5 h / remaining at 1 h: rat liver extract; for remaining at 5 min: read-out: Residual amount of test compound, 5 min.; for remaining at 0.25 h: 15 min., read-out: Residual amount of test compound, 15 min.; for remaining at 0.5 h: 30 min., read-out: Residual amount of test compound, 30 min.; for remaining at 1 h: 60 min., read-out: Residual amount of test compound, 60 min.; for half-life: half-life in the rat liver extract, read-out: Half-time period
Protocol: 2. In vitro drug metabolism in rat liver extract
The resistance of the compound against metabolic degradation by rat liver extract was investigated.
The male Wistar rats (weighing about 200 g) were used after fasting for 24 hours. The rat was sacrificed under ether anesthesia, and the livers were removed and were placed onto the ice.
The liver was minced with scissors under ice-cooling, and homogenized in the presence of 4 volumes of 1.15% KCl-0.1M phosphate buffer (pH 7.4) with a Potter type homogenizer. The homogenates were centrifuged at 9,000×g for 10 minutes at 4° C., and the supernatant filtered through the cheese-cloth was used as an enzyme solution.
The constitution of the reaction mixture was shown in below. 0.1M Buffer was sufficiently bubbled in 95% O2 -5% CO2 gas before use.
Glucose 6-phosphate (60.8 mg.ml)
Nicotineamide (9.16 mg/ml)
The tested samples were dissolved in dimethyl sulfoxide. MgCl2 ·6H2 O was dissolved in a distilled water, and all other reagents were dissolved in 0.1M phosphate buffer. The reaction was initiated by adding enzyme solution, and shaked at 37° C. with 120 cycles/minutes in Spitz test tubes with stoppers. The reaction was stopped by adding methanol after 5, 15, 30 and 60 minutes.
After termination of the reaction, samples were mixed by using of a Vortex mixer, and centrifuged at 3,000 rpm for 10 minutes. The supernatant was applied to a high-performance liquid chromatography of which conditons are shown in below. A residual amount of the mother compound was determined at certain time intervals, whererby half-life of the compound in the rat liver extract was calculated.
Column: Chemcosorb 5C18-300 Å 4.6 mm diameter and 150 mm length
Colume temperature: 50° C.

[3] = target: T1, rat prostate androgen receptor (Rattus norvegicus, UniProt P15207); details: 1 nM ^3 H-mibolerone, 20 hours at 0° C., rat ventral prostate cytosol; read-out: Inhibitory activity on mibolerone specific binding [IC50 (M)]
T1 sequence (P15207 1-902): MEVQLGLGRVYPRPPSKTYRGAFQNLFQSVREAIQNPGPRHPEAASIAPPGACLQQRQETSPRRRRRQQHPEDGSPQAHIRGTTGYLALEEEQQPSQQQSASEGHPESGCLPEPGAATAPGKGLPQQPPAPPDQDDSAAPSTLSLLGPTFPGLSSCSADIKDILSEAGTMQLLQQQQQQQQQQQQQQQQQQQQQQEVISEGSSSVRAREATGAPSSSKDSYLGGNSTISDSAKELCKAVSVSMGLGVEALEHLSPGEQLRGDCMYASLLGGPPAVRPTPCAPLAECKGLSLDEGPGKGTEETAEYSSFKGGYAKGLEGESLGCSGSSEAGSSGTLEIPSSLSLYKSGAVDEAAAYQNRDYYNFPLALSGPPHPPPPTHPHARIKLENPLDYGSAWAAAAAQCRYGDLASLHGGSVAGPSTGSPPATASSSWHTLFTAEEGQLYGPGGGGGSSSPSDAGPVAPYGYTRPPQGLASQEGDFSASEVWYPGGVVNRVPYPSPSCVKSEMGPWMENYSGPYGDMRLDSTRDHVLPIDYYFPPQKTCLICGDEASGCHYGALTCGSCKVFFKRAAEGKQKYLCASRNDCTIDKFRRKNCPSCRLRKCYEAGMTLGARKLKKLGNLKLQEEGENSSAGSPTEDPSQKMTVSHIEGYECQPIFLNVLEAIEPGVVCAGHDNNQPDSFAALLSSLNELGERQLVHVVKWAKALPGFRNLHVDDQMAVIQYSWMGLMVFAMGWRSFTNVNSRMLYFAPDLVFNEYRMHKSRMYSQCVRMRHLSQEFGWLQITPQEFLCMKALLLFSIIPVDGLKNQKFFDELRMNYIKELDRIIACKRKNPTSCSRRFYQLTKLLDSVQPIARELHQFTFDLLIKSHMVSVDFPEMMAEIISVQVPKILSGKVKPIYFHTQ
Protocol: Assay of inhibitory activity to binding of ^3 H-mibolerone on rat prostate androgen receptor
(1) Preparation of Cytosol from Rat Prostate
The rats were killed 24 hours after castration, and the ventral prostate glands were removed, and was gently homogenized, with three volume of buffer solution A (1.5 mM EDTA, 2 mM dithiothreitol, 10 mM molybdate sodium, 10% by volume of glycerol, 10 mM NaF, 25 mM phosphate sodium, pH 7.2) on ice-water bath, in Polytron, and Potter type homogenizer. The obtained homogenate was filtrated through double gauze, and centrifuged at 105,000×g for 60 minutes at 4° C., and the supernatant was obtained as cytoplasm fraction.
(2) Measurement of Specific binding of ^3 H-mibolerone to Prostate Cytoplasm Androgen Receptor
To the cytoplasm fraction obtained in (1) was added ^3 H-mibolerone (87.0 Ci/millimol), so that a final concentration is adjusted to 1 nM, and at the same time, in order to block binding of ^3 H-mibolerone to progestin receptor, triamsinolone acetonide was added to a final concentration of 5 μM, and the final volume was adjusted to 0.4 ml with buffer solution A, and the reaction mixture was incubated for 20 hours at 0° C. After incubation, 0.5 ml of 60% hydroxylapatite slurry (washed and equilibrate with a buffer solution B: 10 mM NaH2 PO4, 20 mM tris-hydrochloric acid, pH 7.2) was added, and incubated for 10 minutes at 0° C., the solution was transferred onto a glass fiber filter, and washed five times with 5 ml portions of buffer solution B containing 0.1% (weight/volume) of Triton X-100, to remove free ^3 H-mibolerone. This glass fiber was transferred into vial, and 10 ml of aquasol- 2 was added, and the radioactivity was measured, and the total binding amount of ^3 H-mibolerone on prostate cytoplasm androgen receptor was determined.
The nonspecific binding amount was determined similarly by adding an unlabeled 5α-DHT in the reaction solution to a final concentration of 1 μM. The difference between the total binding amount and nonspecific binding amount was determined as the specific binding amount on the androgen receptor.
(3) Inhibitory Activity of Sample Compounds on ^3 H-mibolerone Specific Binding
The various concentrations of compounds obtained in the experiments were added simultaneously with ^3 H-mibolerone to incubate same as in (2), and the specific binding amount of ^3 H-mibolerone on androgen receptor was determined. Comparing this value with the value obtained in (2), the IC50 value of inhibitory activity of the compounds on ^3 H-mibolerone specific binding was determined.

Row | SMILES | concentration at 4 h ([1]; 30 mg/kg) [ng/mL] | concentration at 8 h ([1]; 30 mg/kg) [ng/mL] | Blood Level, 20 minutes ([1]; 20 minutes) [ng/mL] | Blood Level, 1 hours ([1]; 1 hour) [ng/mL] | Blood Level, 2 hours ([1]; 2 hours) [ng/mL] | remaining at 5 min [2] [%] | remaining at 0.25 h [2] [%] | remaining at 0.5 h [2] [%] | remaining at 1 h [2] [%] | half-life [2] [h] | concentration at 20 min ([1]; 30 mg/kg, 20 minutes) [ng/mL] | concentration at 1 h ([1]; 30 mg/kg, 1 hour) [ng/mL] | concentration at 2 h ([1]; 30 mg/kg, 2 hours) [ng/mL] | IC50 [3] [M]
1 | CCc1ccccc1NS(=O)(=O)c1ccc(-c2cnn3c(O)ncnc23)cc1 [Comparative Example 10, reference compound] | 112 | 31 | 0 | 0 | 0 | – | – | – | – | – | – | – | – | –
2 | Oc1ncnc2c(-c3ccc(Cc4ccccc4)cc3)cnn12 [Example 1, 8-(4-benzylphenyl)-4-hydroxypyrazolo[1,5-a]-1,3,5-triazine] | 1420 | 731 | – | – | – | 92.2 | 62.4 | 60.2 | 42.9 | 0.75 | 1590 | 2690 | 1250 | 2.8e-07
3 | Oc1ccnc2c(-c3ccc(Cc4ccccc4)cc3)cnn12 [Example 2, 3-(4-benzylphenyl)-7-hydroxypyrazolo[1,5-a]pyrimidine] | – | – | – | – | – | 81.3 | 86.1 | 84.2 | 80.2 | > 1 | – | – | – | 2.8e-07
4 | COc1cccc(Cc2ccc(-c3cnn4c(O)ncnc34)cc2C)c1 [Example 10, 4-hydroxy-8-[4-(3-methoxyphenylmethyl)-3-methyl]phenylpyrazolo[1,5-a]-1,3,5-triazine] | – | – | – | – | – | 77.6 | 57.1 | 62 | 55.2 | > 1 | – | – | – | 1.2e-08
5 | Cc1cccc(Cc2ccc(-c3cnn4c(O)ncnc34)cc2)c1 [Example 13, 4-hydroxy-8-[4-(3-methylphenylmethyl)phenyl]pyrazolo[1,5-a]-1,3,5-triazine] | – | – | – | – | – | 106 | 100 | 97.6 | 81.4 | > 1 | – | – | – | 1.2e-07

Now from value to compound:

Row | concentration at 4 h ([1]; 30 mg/kg) [ng/mL] | concentration at 8 h ([1]; 30 mg/kg) [ng/mL] | Blood Level, 20 minutes ([1]; 20 minutes) [ng/mL] | Blood Level, 1 hours ([1]; 1 hour) [ng/mL] | Blood Level, 2 hours ([1]; 2 hours) [ng/mL] | remaining at 5 min [2] [%] | remaining at 0.25 h [2] [%] | remaining at 0.5 h [2] [%] | remaining at 1 h [2] [%] | half-life [2] [h] | concentration at 20 min ([1]; 30 mg/kg, 20 minutes) [ng/mL] | concentration at 1 h ([1]; 30 mg/kg, 1 hour) [ng/mL] | concentration at 2 h ([1]; 30 mg/kg, 2 hours) [ng/mL] | IC50 [3] [M] | SMILES
6 | – | – | – | – | – | 88.5 | 74.3 | 66 | 53.4 | > 1 | – | – | – | 1.2e-07 | COc1cccc(Cc2ccc(-c3cnn4c(O)ccnc34)cc2)c1 [Example 28, 7-hydroxy-3-[4-(3-methoxyphenylmethyl)phenyl]pyrazolo[1,5-a]pyrimidine]
7 | – | – | – | – | – | 98.3 | 98.8 | 91.5 | 87.9 | > 1 | – | – | – | 1.8e-08 | COc1cccc(Cc2ccc(-c3cnn4c(O)ncnc34)cc2OC)c1 [Example 11]
8 | – | – | – | – | – | 82.9 | 77.8 | 82.5 | 55.5 | > 1 | – | – | – | 6.4e-07 | Cc1ccccc1Cc1ccc(-c2cnn3c(O)ncnc23)cc1 [Example 14, 4-hydroxy-8-[4-(2-methylphenylmethyl)phenyl]pyrazolo[1,5-a]-1,3,5-triazine]
9 | – | – | – | – | – | 86.1 | 68.9 | 64.7 | 51.9 | > 1 | – | – | – | 9.9e-08 | COc1cccc(Cc2ccc(-c3cnn4c(O)ncnc34)cc2)c1 [Example 15, 4-hydroxy-8-[4-(3-methoxyphenylmethyl)phenyl]pyrazolo[1,5-a]-1,3,5-triazine]
